Our source for the IC50 values is patent publication US9346795B2, “Substituted sulfonamides useful as antiapoptotic Bcl inhibitors” (Bristol-Myers Squibb Company, priority 2011, dated 2016).

The structures appear in SMILES notation. pIC50: −log10 of the molar value.

For assay [1], the target named is Bcl-xL (Homo sapiens (Human), UniProt Q07817). The experiment in a line: Bcl-xL/Bim Fluorescence Resonance Energy Transfer Assay (FRET). Format: binding. The method, boiled down: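 Biotin-Bcl-xL was incubated with Bim and compound at eleven concentrations for 60 min at room temperature. Streptavidin-terbium detection was then added for 30 min in the dark, and FRET was read. IC50 values were obtained by non-linear regression.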

Assay [2] has as its target Bcl-2 (Homo sapiens (Human), UniProt P10415). In words: Bcl-2/Bim Fluorescence Polarization Assay (FPA). Type of assay: binding.

Sequence of Bcl-2 (P10415 whole entry): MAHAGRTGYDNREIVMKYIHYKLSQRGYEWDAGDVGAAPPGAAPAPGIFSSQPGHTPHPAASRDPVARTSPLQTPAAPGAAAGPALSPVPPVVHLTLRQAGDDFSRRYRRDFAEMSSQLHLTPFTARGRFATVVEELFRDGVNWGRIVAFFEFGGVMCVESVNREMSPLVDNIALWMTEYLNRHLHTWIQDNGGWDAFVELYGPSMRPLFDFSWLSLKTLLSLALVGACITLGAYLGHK
Sequence of Bcl-xL (Q07817 whole entry): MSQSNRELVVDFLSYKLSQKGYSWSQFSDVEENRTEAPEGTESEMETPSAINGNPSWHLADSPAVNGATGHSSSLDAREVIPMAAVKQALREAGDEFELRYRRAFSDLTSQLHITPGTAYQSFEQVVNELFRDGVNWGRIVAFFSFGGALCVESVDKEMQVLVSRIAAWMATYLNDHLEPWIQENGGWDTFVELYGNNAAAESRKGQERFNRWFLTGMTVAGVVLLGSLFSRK

Broadly, the pIC50 is the IC50 on a negative log10 scale, so that one unit is a factor of ten. A higher pIC50 goes with a low IC50. On to `CCCCc1c(-c2ccc(C(=O)NS(=O)(=O)c3ccc4ccccc4c3)cc2C(=O)N2CCc3ccccc3C2)c(CO)nn1-c1ccc(CCO)cc1` [Example 245, 4-(5-butyl-1-(4-(2-hydroxyethyl)phenyl)-3-(hydroxymethyl)-1H-pyrazol-4-yl)-N-(naphthalen-2-ylsulfonyl)-3-(1,2,3,4-tetrahydroisoquinoline-2-carbonyl)benzamide], for which the pIC50 in assay [1] was 8.21; in assay [2] it was 7.70.
Consider `CCCCN(CCCC)C(=O)c1nn(-c2ccc(C(=O)NS(=O)(=O)c3ccc4c(ccn4Cc4ccc(Cl)c(Cl)c4)c3)cc2C(=O)N2Cc3ccccc3C[C@H]2CO)c(C)c1Cl` [Example 198, N,N-dibutyl-4-chloro-1-(4-(1-(3,4-dichlorobenzyl)-1H-indol-5-ylsulfonylcarbamoyl)-2-((S)-3-(hydroxymethyl)-1,2,3,4-tetrahydroisoquinoline-2-carbonyl)phenyl)-5-methyl-1H-pyrazole-3-carboxamide], for which the figures for the pIC50 in assay [1] and in assay [2] were 7.30 and 8.05, respectively.
With `CCCCN(CCCC)C(=O)c1nn(-c2ccc(C(=O)NS(=O)(=O)c3ccc4ccc(OCCCN5CCN(C)CC5)cc4c3)cc2C(=O)N2CCc3ccccc3C2)c(C)c1Cl` [Example 35, N,N-dibutyl-4-chloro-5-methyl-1-(4-(7-(3-(4-methylpiperazin-1-yl)propoxy)naphthalen-2-ylsulfonylcarbamoyl)-2-(1,2,3,4-tetrahydroisoquinoline-2-carbonyl)phenyl)-1H-pyrazole-3-carboxamide], the negative logarithm of the IC50 (pIC50) in assay [1] was 7.40; in assay [2] it was 6.29.
Taken in the same sequence, the figures for `CCCCN(CCCC)C(=O)c1cc(C)n(-c2ccc(C(=O)NS(=O)(=O)c3ccc4ccccc4c3)cc2C(=O)N2CCc3ccccc3C2)n1` [Example 164, N,N-Dibutyl-5-methyl-1-(4-(naphthalen-2-ylsulfonylcarbamoyl)-2-(1,2,3,4-tetrahydroisoquinoline-2-carbonyl)phenyl)-1H-pyrazole-3-carboxamide] were 7.52 and 6.64.
For `CCCCN(CCCC)C(=O)c1nn(-c2ccc(C(=O)NS(=O)(=O)c3ccc4c(c3)CCN4CC)cc2C(=O)N2CCc3ccccc3C2)c(C)c1Cl` [Example 53, N,N-dibutyl-4-chloro-1-(4-(1-ethylindolin-5-ylsulfonylcarbamoyl)-2-(1,2,3,4-tetrahydroisoquinoline-2-carbonyl)phenyl)-5-methyl-1H-pyrazole-3-carboxamide], the negative-log IC50 (pIC50) in assay [1] is 8.00; in assay [2] it was 7.22.
The matching figures for `CCCCN(C(=O)c1nn(-c2ccc(C(=O)NS(=O)(=O)c3ccc4ccccc4c3)cc2C(=O)N2CCc3ccccc3C2)c(C)c1Cl)c1ccc2c(c1)OCCO2` [Example 149, N-butyl-4-chloro-N-(2,3-dihydrobenzo[b][1,4]dioxin-6-yl)-5-methyl-1-(4-(naphthalen-2-ylsulfonylcarbamoyl)-2-(1,2,3,4-tetrahydroisoquinoline-2-carbonyl)phenyl)-1H-pyrazole-3-carboxamide]: 7.52 and 7.15.
`CCCN(CCC)c1nn(-c2ccc(C(=O)NS(=O)(=O)c3ccc4ccccc4c3)cc2C(=O)N2Cc3ccccc3C[C@H]2CO)c(C)c1Cl` [Example 192, 4-(4-Chloro-3-(dipropylamino)-5-methyl-1H-pyrazol-1-yl)-3-((S)-3-(hydroxymethyl)-1,2,3,4-tetrahydroisoquinoline-2-carbonyl)-N-(naphthalen-2-ylsulfonyl)benzamide]: the pIC50 in assay [1] was 7.52; in assay [2], 7.22.
The matching figures for `CCCCN(CCCC)C(=O)c1nn(-c2ccc(C(=O)NS(=O)(=O)c3ccc4ccc(C(=O)N5CCN(C)CC5)cc4c3)cc2C(=O)N2CCc3ccccc3C2)c(C)c1Cl` [Example 46, N,N-Dibutyl-4-chloro-5-methyl-1-(4-(7-(4-methylpiperazine-1-carbonyl)naphthalen-2-ylsulfonylcarbamoyl)-2-(1,2,3,4-tetrahydroisoquinoline-2-carbonyl)phenyl)-1H-pyrazole-3-carboxamide]: 7.40 and 7.05.
Taken in the same sequence, the figures for `CCCCN(CCCC)C(=O)c1nn(-c2ccc(C(=O)NS(=O)(=O)c3ccc4ccccc4c3)cc2C(=O)N2Cc3ccccc3C[C@@H]2C(=O)O)c(C)c1Cl` [Example 93, (3R)-2-(2-(4-Chloro-3-(dibutylcarbamoyl)-5-methyl-1H-pyrazol-1-yl)-5-(naphthalen-2-ylsulfonylcarbamoyl)benzoyl)-1,2,3,4-tetrahydroisoquinoline-3-carboxylic acid] were 6.70 and 5.78.
With `CCCCN(C(=O)c1nn(-c2ccc(C(=O)NS(=O)(=O)c3ccc4c(Cl)ccc(Cl)c4c3)cc2C(=O)N2CCc3ccccc3C2)c(C)c1Cl)c1cccc(-c2ccc(Cl)cc2)c1` [Example 221, N-butyl-4-chloro-N-(4′-chlorobiphenyl-3-yl)-1-(4-(5,8-dichloronaphthalen-2-ylsulfonylcarbamoyl)-2-(1,2,3,4-tetrahydroisoquinoline-2-carbonyl)phenyl)-5-methyl-1H-pyrazole-3-carboxamide], the pIC50 in assay [1] and in assay [2] was 7.40 in each case.
`CCCCN(Cc1ccc(Cl)c(Cl)c1)C(=O)c1nn(-c2ccc(C(=O)NS(=O)(=O)c3ccc4ccc(I)cc4c3)cc2C(=O)N2CCc3ccccc3C2)c(C)c1Cl` [Example 179, N-Butyl-4-chloro-N-(3,4-dichlorobenzyl)-1-(4-(7-iodonaphthalen-2-ylsulfonylcarbamoyl)-2-(1,2,3,4-tetrahydroisoquinoline-2-carbonyl)phenyl)-5-methyl-1H-pyrazole-3-carboxamide]: the results for the pIC50 in assay [1] and in assay [2] were 7.10 and 7.70, respectively.
Taken in the same sequence, the figures for `CCCCN(CCCC)C(=O)c1nn(-c2ccc(C(=O)NS(=O)(=O)c3ccc4c(N(C)C)ccc(Br)c4c3)cc2C(=O)N2CCc3ccccc3C2)c(C)c1Cl` [Example 31, 1-(4-(8-bromo-5-(dimethylamino)naphthalen-2-ylsulfonylcarbamoyl)-2-(1,2,3,4-tetrahydroisoquinoline-2-carbonyl)phenyl)-N,N-dibutyl-4-chloro-5-methyl-1H-pyrazole-3-carboxamide] were 7.15 and 7.52.
The matching figures for `CCCCN(C(=O)c1nn(-c2ccc(C(=O)NS(=O)(=O)c3ccc4ccccc4c3)cc2C(=O)N2CCc3ccccc3C2)c(C)c1Cl)c1cccc(-c2cccc(Cl)c2)c1` [Example 152, N-butyl-4-chloro-N-(3′-chlorobiphenyl-3-yl)-5-methyl-1-(4-(naphthalen-2-ylsulfonylcarbamoyl)-2-(1,2,3,4-tetrahydroisoquinoline-2-carbonyl)phenyl)-1H-pyrazole-3-carboxamide]: 6.80 and 7.30.
Taken in the same sequence, the figures for `CCCCc1c(-c2ccc(C(=O)NS(=O)(=O)c3ccc4ccccc4c3)cc2C(=O)N2CCc3ccccc3C2)c(C(=O)OCC)nn1-c1ccc(Oc2ccccc2)cc1` [Example 228, Ethyl 5-butyl-4-(4-(naphthalen-2-ylsulfonylcarbamoyl)-2-(1,2,3,4-tetrahydroisoquinoline-2-carbonyl)phenyl)-1-(4-phenoxyphenyl)-1H-pyrazole-3-carboxylate] were 7.22 and 7.00.
